For one assay, the system named is C5-epimerase (HS:5). Particulars: pH 7.5, 25 °C; 50 mM HEPES/KOH; 300 μM NADPH; apparent.
A further assay deals with T1, C3-dehydratase (HS:5).
T1 construct: full length, N-terminal 21-residue His6 tag (pET-28a), codon-optimised gene, E. coli BL21(DE3)
Nature of the assay: coupled glutamate dehydrogenase assay, NADPH oxidation at […] nm. The conditions noted are these: pH 7.5, 25 °C; 0.2 mM PLP, 4.0 mM L-glutamate; 50 mM ammonium bicarbonate; apparent. Format: biochemical, Campylobacter.

For orientation: Km means the substrate concentration at which the rate is half of its maximum.

For `Nc1nc2c(ncn2[C@@H]2O[C@H](COP(=O)(O)OP(=O)(O)O[C@H]3O[C@H](CCO)C(=O)C[C@@H]3O)[C@@H](O)[C@H]2O)c(=O)[nH]1` [compound 8, GDP-3,6-dideoxy-4-keto-α-D-threo-heptose], the Michaelis-Menten constant (Km) in the assay on C5-epimerase (HS:5) was determined as 480 ± 80 µM.

On to `Nc1nc2c(ncn2[C@@H]2O[C@H](COP(=O)(O)OP(=O)(O)O[C@H]3O[C@H](CCO)C(=O)[C@H](O)[C@@H]3O)[C@@H](O)[C@H]2O)c(=O)[nH]1` [compound 5, GDP-6-deoxy-4-keto-α-D-lyxo-heptose], for which the Michaelis-Menten constant (Km) with C3-dehydratase (HS:5) stood at 840 ± 60 µM.

For the origin of these results see article PMC10440746, “Biosynthesis of 3,6-Dideoxy-heptoses for the Capsular Polysaccharides of Campylobacter jejuni” (Biochemistry, 2023).
